# In US20140357512A1, “HISTONE DEACETYLASE (HDAC) BIOMARKERS IN MULTIPLE MYELOMA” (priority 2013, published 2014):
# Test system: human myeloma cell line MM.1S
# Experiment: SILAC acetylated-lysine peptide profiling, HDAC inhibitor vs DMSO (light/heavy ratio)
# Type: cell-based
# From the text: An embodiment of the invention comprises utilizing the SILAC method in order to quantitate changes in protein expression between two or more populations of cells. The SILAC method is a technique based on mass spectrometry that detects differences in protein abundance among samples using non-radioactive isotopic labeling. The SILAC method is known in the art, and described in detail in Ong et al., “Stable Isotope Labeling by Amino Acids in Cell Culture, SILAC, as a Simple and Accurate Approach to Expression Proteomics”, Molecular & Cellular Proteomics, vol. 1, pp. 376-386 (2002), which is incorporated herein by reference in its entirety.
# Briefly, the SILAC method involves growing two populations of cells in cell culture. The first population of cells is grown in growth media containing normal amino acids (“normal media”). The second population of cells is grown in media lacking a standard essential amino acid (such as lysine), but is then supplemented with a non-radioactive, isotopically labeled form of that essential amino acid (such as lysine labeled with ^13C atoms, rather than normal ^12C atoms), which is called “heavy media”. When the two populations of cells are each growing in the medium, they incorporate the amino acids into all of their proteins. The growth of cells maintained in the heavy media is no different from that in normal media. All peptides containing the heavy amino acids are heavier than their normal counterparts. The cells from each of the two populations of cells are lysed. The lysates from each of the two cell populations are then combined. The combined cell lysates are then analyzed by mass spectrometry. Pairs of chemically identical peptides of different stable isotope composition can be differentiated in a mass spectrometer due to their difference in mass. The ratio of peak intensities in the mass spectrum for such peptide pairs reflects the abundance ratio for the two proteins.
# This example describes SILAC studies that were performed to compare the effects of three different HDAC inhibitors (Compound A, Compound B, and tubastatin A) to a control on a human multiple myeloma cell line. The HDAC inhibitors were also compared amongst themselves to determine differences in their effects.
# A human myeloma cell line MM.1S was grown using either ^12C (light) or ^13C (heavy) lysine containing culture medium. The “heavy” cells were treated with DMSO as the control, and the “light” cells were treated with a single HDAC inhibitor at 37° C. for 6 hours. The heavy and light cells were lysed, and the lysates were mixed in 1:1 ratio and digested with the protease trypsin. The acetylated lysine containing peptides (due to the action of the HDAC inhibitor) in the digested peptide pool were captured by a non-specific anti-acetylated lysine antibody cocktail (the antibodies identify both light and heavy acetylated peptides), and subjected to mass spectrometry analysis in order to identify thousands of individual peptides.
# Thousands of peptides were identified in pairs (^12C and ^13C) due to their known mass differences. The amino acid sequence and quantitative ratio (Light/Heavy) of a given peptide in two differentially treated cell lysates were then determined and annotated with their possible protein (gene) sources.
# As stated above, three HDAC inhibitors (Compound A, Compound B, and Tubastatin A) were used. Thus, the SILAC method was performed three times, with a different HDAC inhibitor compared to a control each time. Accordingly, there are three pairs of quantitative data in the table below, i.e., Compound A:DMSO, Compound B:DMSO, and Tubastatin A:DMSO. A cut-off of 1.30 fold of change (increase or decrease) was then used to determine “changed” or “+” in the table, and any peptides with a fold of change less than 1.3 fold were determined to be “unchanged” or “0” in the table. Those peptides that were not identified were marked as “NA” in the table. […]
compound,measurement,setting,value
"O=C(CCCCCCNC(=O)c1cnc(N(c2ccccc2)c2ccccc2)nc1)NO [Compound A, 2-(diphenylamino)-N-(7-(hydroxyamino)-7-oxoheptyl)pyrimidine-5-carboxamide]","light to heavy ratio (L/H ratio), log 2 scale, acetylated peptide VGDK(ac)[…] (SEQ ID NO: 773)","10 kDa heat shock protein mitochondrial [70], gene HSPE1, drug:DMSO",1.00
same,light to heavy ratio (L/H ratio) of acetylated peptide AGEATVK(ac)FLK (SEQ ID NO: 580),"39S ribosomal protein L9 mitochondrial [165], gene MRPL9, inhibitor:DMSO",0.43 log 2
same,light to heavy ratio (L/H ratio) of acetylated peptide IQEVLK(ac)HAR (SEQ ID NO: 264),"39S ribosomal protein L20 mitochondrial [26], MRPL20, drug:DMSO",0.43 log 2
same,light to heavy ratio (L/H ratio) of acetylated peptide YIGK(ac)TMDYR (SEQ ID NO: 535),"39S ribosomal protein L24 mitochondrial [100], gene MRPL24, inhibitor:DMSO",−0.39 log 2
same,light to heavy ratio (L/H ratio) of acetylated peptide FQK(ac)ELER (SEQ ID NO: 618),"39S ribosomal protein L44 mitochondrial [43], gene MRPL44, inhibitor:DMSO",0.48 log 2
same,light to heavy ratio (L/H ratio) of acetylated peptide FK(ac)LITEDVQGK (SEQ ID NO: 287),"40S ribosomal protein S3a [85], SNORD73A, RPS3A, drug:DMSO",0.62 log 2
same,light to heavy ratio (L/H ratio) of acetylated peptide KDVHMPK(ac)HPELADK (SEQ ID NO: 353),"40S ribosomal protein S10 [31], RPS10, drug:DMSO",0.00 log 2
same,"light to heavy ratio (L/H ratio), log 2 scale, acetylated peptide K(ac)FGGPGAR (SEQ ID NO: 768)","40S ribosomal protein S16 [131], gene RPS16, drug:DMSO",0.97
same,light to heavy ratio (L/H ratio) of acetylated peptide NK(ac)[…] (SEQ ID NO: 559),"40S ribosomal protein S17 [49], gene RPS17, RPS17L, inhibitor:DMSO",0.40 log 2
same,light to heavy ratio (L/H ratio) of acetylated peptide ADGIVSK(ac)NF (SEQ ID NO: 599),"40S ribosomal protein S21 [81], gene RPS21, inhibitor:DMSO",0.46 log 2
same,light to heavy ratio (L/H ratio) of acetylated peptide GIVLEK(ac)VGVEAK (SEQ ID NO: 320),"40S ribosomal protein S23 [54], RPS23, drug:DMSO",1.00 log 2
same,"light to heavy ratio (L/H ratio), log 2 scale, acetylated peptide K(ac)FGQGSR (SEQ ID NO: 809)","40S ribosomal protein S29 [13], gene RPS29, drug:DMSO",1.00
same,"light to heavy ratio (L/H ratio), log 2 scale, acetylated peptide ATWK(ac)SNYFLK (SEQ ID NO: 760)","60S acidic ribosomal protein P0 [10], gene RPLP0, drug:DMSO",0.91
same,"light to heavy ratio (L/H ratio), log 2 scale, acetylated peptide ALEK(ac)IDLK (SEQ ID NO: 813)","60S ribosomal protein L3 [362], gene SNORD43, RPL3, drug:DMSO",1.00
same,light to heavy ratio (L/H ratio) of acetylated peptide IPK(ac)HLTDAYFK (SEQ ID NO: 259),"60S ribosomal protein L6 [211], RPL6, drug:DMSO",0.40 log 2
same,"light to heavy ratio (L/H ratio), log 2 scale, acetylated peptide AVDSQILPK(ac)IK (SEQ ID NO: 761)","60S ribosomal protein L6 [261], gene RPL6, drug:DMSO",0.92
same,light to heavy ratio (L/H ratio) of acetylated peptide HGYIK(ac)GIVK (SEQ ID NO: 556),"60S ribosomal protein L8 [42], gene RPL8, inhibitor:DMSO",0.40 log 2
same,light to heavy ratio (L/H ratio) of acetylated peptide IDK(ac)PILK (SEQ ID NO: 506),"60S ribosomal protein L8 [177], gene RPL8, inhibitor:DMSO",−0.65 log 2
same,light to heavy ratio (L/H ratio) of acetylated peptide GPLDK(ac)WR (SEQ ID NO: 622),"60S ribosomal protein L10-like [208], gene RPL10L, inhibitor:DMSO",0.48 log 2
same,"light to heavy ratio (L/H ratio), log 2 scale, acetylated peptide YMVK(ac)SCGK (SEQ ID NO: 811)","60S ribosomal protein L10 [78], gene SNORA70, RPL10, drug:DMSO",1.00
same,"light to heavy ratio (L/H ratio), log 2 scale, acetylated peptide VDEVK(ac)STIK (SEQ ID NO: 805)","60S ribosomal protein L10a [152], gene RPL10A, drug:DMSO",1.00
same,light to heavy ratio (L/H ratio) of acetylated peptide VITEEEK(ac)NFK (SEQ ID NO: 522),"60S ribosomal protein L13 [174], gene RPL13, inhibitor:DMSO",−0.46 log 2
same,light to heavy ratio (L/H ratio) of acetylated peptide LAAIVAK(ac)QVLLGR (SEQ ID NO: 505),"60S ribosomal protein L13a [25], gene SNORD32A, RPL13A, SNORD33, SNORD34, inhibitor:DMSO",−0.67 log 2
same,light to heavy ratio (L/H ratio) of acetylated peptide K(ac)FAYLGR (SEQ ID NO: 614),"60S ribosomal protein L13a [134], gene SNORD32A, RPL13A, SNORD33, SNORD34, inhibitor:DMSO",0.47 log 2
same,"light to heavy ratio (L/H ratio), log 2 scale, acetylated peptide LAHEVGWK(ac)[…] (SEQ ID NO: 812)","60S ribosomal protein L13a [148], gene SNORD32A, RPL13A, SNORD33, SNORD34, drug:DMSO",1.00
same,light to heavy ratio (L/H ratio) of acetylated peptide […](ac)PVHK (SEQ ID NO: 581),"60S ribosomal protein L15 [153], gene RPL15, inhibitor:DMSO",0.43 log 2
same,light to heavy ratio (L/H ratio) of acetylated peptide GHK(ac)FHHTIGGSR (SEQ ID NO: 519),"60S ribosomal protein L15 [179], gene RPL15, inhibitor:DMSO",−0.51 log 2
same,"light to heavy ratio (L/H ratio), log 2 scale, acetylated peptide SFVK(ac)[…] (SEQ ID NO: 770)","60S ribosomal protein L27 [73], gene RPL27, drug:DMSO",0.99
same,"light to heavy ratio (L/H ratio), log 2 scale, acetylated peptide YSVDIPLDK(ac)TVVNK (SEQ ID NO: 807)","60S ribosomal protein L27 [93], gene RPL27, drug:DMSO",1.00
same,"light to heavy ratio (L/H ratio), log 2 scale, acetylated peptide TVVNK(ac)DVFR (SEQ ID NO: 766)","60S ribosomal protein L27 [98], gene RPL27, drug:DMSO",0.94
same,light to heavy ratio (L/H ratio) of acetylated peptide NCSSFLIK(ac)R (SEQ ID NO: 558),"60S ribosomal protein L28 [19], gene RPL28, inhibitor:DMSO",0.40 log 2
same,light to heavy ratio (L/H ratio) of acetylated peptide IHGVGFK(ac)K (SEQ ID NO: 542),"60S ribosomal protein L31 [39], gene RPL31, inhibitor:DMSO",0.39 log 2
same,"light to heavy ratio (L/H ratio), log 2 scale, acetylated peptide LNK(ac)AVWAK (SEQ ID NO: 808)","60S ribosomal protein L31 [70], gene RPL31, drug:DMSO",1.00
same,light to heavy ratio (L/H ratio) of acetylated peptide […](ac)ENLR (SEQ ID NO: 610),"60S ribosomal protein L35 [66], gene RPL35, inhibitor:DMSO",0.47 log 2
same,light to heavy ratio (L/H ratio) of acetylated peptide LWSK(ac)AIFAGYK (SEQ ID NO: 538),"60S ribosomal protein L35a [8], gene RPL35A, inhibitor:DMSO",0.38 log 2
